# Data published in patent US5344821A, “Pheromonostatic peptide used to disrupt mating of the corn earworm, helicoverpa zea” (The United States of America, as represented by the …, priority 1993, dated 1994).
# Where a name gives a salt, the structure may show the parent alone.
# Columns and labels:
# corn earworm moths = conditions: cited from earlier work
# tobacco budworm moths = conditions: cited from earlier work
# H. zea males [1] = conditions: caged males; cited from earlier work
# H. zea males [2] = conditions: field experiments, sticky or electric grid traps; cited from earlier work
# female H. zea = test: Depletion of female sex pheromone after transfer of the polypeptide during mating; assay type: in vivo, Helicoverpa zea
# Protocol: This invention relates to a polypeptide which is transferred from the male corn earworm moth to the female during mating. After transfer, a decline in the production of sex pheromone is observed for at least 24 hours and the female becomes unattractive to males over that period of time. A continued presence of this peptide within the female serves as an effective means of insect control by rendering it permanently unattractive. The peptide is also useful in the study of insect physiology.
# Non-volatile chemicals may also trigger behavioral changes. As described above, the neuropeptide PBAN initiates pheromone biosynthesis. In addition, another polypeptide, pheromonostatic peptide (PSP) is produced in the reproductive tract of male H. zea and is transferred with spermatozoa to the female during mating.
# H. zea females = test: Bioassay: pheromone content of ligated, PBAN-injected females after a second injection with the isolated material; assay type: in vivo, Helicoverpa zea
# Protocol: The activity of the two peptides was evaluated by bioassay. Females were first ligated between head & thorax to remove their own source of PBAN; they were then injected with PBAN to stimulate pheromone biosynthesis, followed by a later injection with the isolated material.
# Females in their 1st or 2nd photophase after emergence are ligated between the head and thorax with silk thread. The following morning, approximately 16 hours later, the females are injected with 2 picomoles of the pheromonotropic peptide PBAN. One hour later, they are injected a second time with fractionated material obtained as described supra. Two hours later, the tip of the abdomen (at the 7th abdominal segment), containing the ovipositor and the glandular tissue producing sex pheromone, is excised and extracted with 5-15 μl heptane The amount of the major component of sex pheromone, Z-11-hexadecenal, is quantified by gas chromatography. Females receiving saline (control) at the second injection typically contain 50-150 nanograms pheromone in the extract while females having been injected with the peptides extracted from the male reproductive tract are found to have 1-5 nanograms.
compound,measurement,setting,value
"CCCC/C=C\CCCCCCCCOC=O [(Z)-9-TDF, (Z)-9-tetradecen-1-ol formate]",reduction of mating,corn earworm moths,effective in reducing mating
same,reduction of mating,tobacco budworm moths,effective in reducing mating
CCCC/C=C\CCCCCCCCCC=O [Z-11-hexadecenal],sex stimulation activity,H. zea males [1],strong sex stimulation activity
same,catch of males in traps in the presence of the compound,H. zea males [2],inhibited
"PSP: basic, 57-amino acid peptide, 6615 daltons, one disulfide, pyro-Glu N-terminus, amidated C-terminus, from male H. zea accessory glands and duplex",duration of the pheromone depletion,female H. zea; after transfer during mating,at least 24 hours
same,effect on female sex pheromone after transfer at mating,female H. zea; transferred with spermatozoa from male to female during mating,causes a depletion of the sex pheromone
same,pheromone accumulation with versus without PSP injection,"H. zea females; ligated females injected with PBAN, then with the isolated material",females receiving no PSP typically accumulated pheromone in much higher amounts than those having been injected with PSP
same,amount of Z-11-hexadecenal (major component of sex pheromone) in the ovipositor/gland extract,"H. zea females; ligated females, 2 picomoles PBAN, test material injected 1 hour later, gland excised 2 hours later, gas chromatography, saline control 50-150 nanograms",1-5 nanograms
